“And” between values parts separate entries of the source, which are not always exact repeats. Equal entries are not always repeated.
Assays:
leukemia L1210 [1] = assay: Leukemia L1210 in vivo, effect of the day of inoculation (Table XIII); parameters: species or system mice; conditions: 15 mg/kg; for Death interval / ILS % / Mean survival time: 10^5 cells; for Surviving mice: groups of 6 mice
Description: The properties were determined by the curative action inoculated experimental leukemia L1210. This leukemia was maintained on B6 D2 Fl (C 57 Bl/6×DBA/2) Fl mice in the proportion of 6 or 10 mice per experimental batch. The compounds to be tested were injected by the intraperitoneal route one or several days after inoculation of the cells (1 injection only). The death interval was determined, the first figure of the Table indicating the date of the first mouse death and the second the date of the last mouse death. The mean survival time was also measured (MST). A characteristic value is the percentage of increased life span (ILS %).
As in the above test the death interval was determined, the mean survival time (MST) was measured and the percentage of increased life span (ILS %) was calculated.

leukemia L1210 [2] = assay: Leukemia L1210 in vivo, measurement of survival time (Table XII); parameters: species or system B6 D2 Fl (C 57 Bl/6×DBA/2) Fl mice; MST: unit not given here; conditions: for Death interval (mice) / ILS % / MST / Surviving mice: i.p.
Description: The following pharmacological trials relate to the effects of the compounds of the invention on leukemia L1210 in vivo.
G. Proc. Nat. Acad. Sci. 1972, 69, 1042-1047 and Schepartz S., Screening 1971, Cancer Chemother. Part 3; Vol. 2, p. 3].
The properties were determined by the curative action inoculated experimental leukemia L1210. This leukemia was maintained on B6 D2 Fl (C 57 Bl/6×DBA/2) Fl mice in the proportion of 6 or 10 mice per experimental batch. The compounds to be tested were injected by the intraperitoneal route one or several days after inoculation of the cells (1 injection only). […] The death interval was determined, the first figure of the Table indicating the date of the first mouse death and the second the date of the last mouse death. The mean survival time was also measured (MST). A characteristic value is the percentage of increased life span (ILS %). This value (Cancer. Res. 1971, 31, 1883-1887) is the ratio: [formula] where S^t =survival of treated animals and
S^c =survival of control animals.

[3] = experimental group of six mice, 15 mg/kg, day +1, 15 mg/kg
[4] = experimental group of six mice, 20 mg/kg, day +1

With `CCN(CC)CCCNc1nccc2c(C)c3[nH]c4ccc(OC)cc4c3c(C)c12` [Compound 27] as the compound, how does the “activity by day of inoculation” value (leukemia L1210 [1]) read?
Its value is “more active one day after inoculation of the cells”.

And the Death interval (leukemia L1210 [1]; D+1)?
Its Death interval is 15-29.

And the ILS % (leukemia L1210 [1]; D+1)?
Its ILS % is 82.6%.

And the Mean survival time (leukemia L1210 [1]; D+1)?
Its Mean survival time is 21.

What about the Death interval (leukemia L1210 [1]; D+2) of the same compound?
Its Death interval is 15-35.

What about the ILS % (leukemia L1210 [1]; D+2) of the same compound?
The ILS % was 88.7%.

And the Mean survival time (leukemia L1210 [1]; D+2)?
The Mean survival time was 21.7.

What about the Death interval (leukemia L1210 [1]; D+3) of the same compound?
Its Death interval is 13-25.

What about the ILS % (leukemia L1210 [1]; D+3) of the same compound?
Its ILS % is 56.5%.

What about the Mean survival time (leukemia L1210 [1]; D+3) of the same compound?
The Mean survival time was 18.

And the Death interval (leukemia L1210 [1]; D+4)?
The Death interval was 14-20.

And the ILS % (leukemia L1210 [1]; D+4)?
The ILS % was 39.1%.

And the Mean survival time (leukemia L1210 [1]; D+4)?
The Mean survival time was 16.

What about the Death interval (leukemia L1210 [1]; Do(+3h)) of the same compound?
Its Death interval is 16-25.

And the ILS % (leukemia L1210 [1]; Do(+3h))?
Its ILS % is 80%.

What about the Mean survival time (leukemia L1210 [1]; Do(+3h)) of the same compound?
Its Mean survival time is 20.7.

What about the Surviving mice (leukemia L1210 [1]; D+1) of the same compound?
Its Surviving mice is 2 mice.

What about the Surviving mice (leukemia L1210 [1]; D+2) of the same compound?
Its Surviving mice is 0 mice.

What about the Surviving mice (leukemia L1210 [1]; D+3) of the same compound?
Its Surviving mice is 0 mice.

What about the Surviving mice (leukemia L1210 [1]; D+4) of the same compound?
The Surviving mice was 0 mice.

And the Surviving mice (leukemia L1210 [1]; Do(+3h))?
The Surviving mice was 0 mice.

And the “Death interval (mice)” value (leukemia L1210 [2]; 10^5 cells, 10 mg/kg, day +3)?
Its value is 12-31.

What about the ILS % (leukemia L1210 [2]; 10^5 cells, 10 mg/kg, day +3) of the same compound?
The ILS % was 49.4%.

What about the MST (leukemia L1210 [2]; 10^5 cells, 10 mg/kg, day +3) of the same compound?
The MST was 17.3.

And the “Death interval (mice)” value (leukemia L1210 [2]; 10^5 cells, 10 mg/kg, day +4)?
Its value is 16-27.

What about the ILS % (leukemia L1210 [2]; 10^5 cells, 10 mg/kg, day +4) of the same compound?
The ILS % was 92.3%.

What about the MST (leukemia L1210 [2]; 10^5 cells, 10 mg/kg, day +4) of the same compound?
Its MST is 20.

What about the “Death interval (mice)” value (leukemia L1210 [2]; 10^5 cells, 15 mg/kg, day +1) of the same compound?
The value was 17-43.

And the ILS % (leukemia L1210 [2]; 10^5 cells, 15 mg/kg, day +1)?
The ILS % was 128.6%.

And the MST (leukemia L1210 [2]; 10^5 cells, 15 mg/kg, day +1)?
The MST was 24.

And the “Death interval (mice)” value (leukemia L1210 [2]; 10^5 cells, 20 mg/kg, day +3)?
Its value is 10-30.

What about the ILS % (leukemia L1210 [2]; 10^5 cells, 20 mg/kg, day +3) of the same compound?
The ILS % was 42.7%.

What about the MST (leukemia L1210 [2]; 10^5 cells, 20 mg/kg, day +3) of the same compound?
The MST was 16.5.

What about the “Death interval (mice)” value (leukemia L1210 [2]; 10^5 cells, 20 mg/kg, day +4) of the same compound?
The value was 17-23.

And the ILS % (leukemia L1210 [2]; 10^5 cells, 20 mg/kg, day +4)?
Its ILS % is 94.2%.

What about the MST (leukemia L1210 [2]; 10^5 cells, 20 mg/kg, day +4) of the same compound?
Its MST is 20.2.

And the Surviving mice (leukemia L1210 [2]; experimental group of six mice, 15 mg/kg, day +1)?
The Surviving mice was 4 mice.

And the “Death interval (mice)” value (leukemia L1210 [2]; [3])?
The value was 19-35 and 20-32.

And the MST (leukemia L1210 [2]; [3])?
Its MST is 25 and 26.

What about the “Death interval (mice)” value (leukemia L1210 [2]; [4]) of the same compound?
Its value is 20-31.

And the ILS % (leukemia L1210 [2]; [4])?
The ILS % was 102.4%.

What about the MST (leukemia L1210 [2]; [4]) of the same compound?
Its MST is 25.5.

What about the Surviving mice (leukemia L1210 [2]; [4]) of the same compound?
The Surviving mice was 4 mice.

And the “increase in the life span (ILS)” value (leukemia L1210 [2]; text: dose closest to the toxic dose, same conditions)?
The value was 134%.
